Measurements from US20250098679A1, “HERBICIDAL PYRIDONE DERIVATIVES” (SYNGENTA CROP PROTECTION AG, priority 2021, published 2025).

Columns and labels:
Assay type in all cases: in vivo
Setaria faberi (SETFA) = test: Post-emergence Test, Setaria faberi (SETFA); design: key to percentage damage caused to the plant, SETFA (five-point scale): 5=81-100%, 4=61-80%, 3=41-60%, 2=21-40%, 1=0-20% damage; settings: 1000 g/ha, evaluated after 13 days
Method in brief: (§1)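 Sown pots in a glasshouse (24/16 °C day/night, 14 h light, 65% humidity) were sprayed with compound in acetone/water (50:50) with 0.5% Tween 20, at 1000 g/ha unless otherwise stated. Damage was assessed 13 days after spraying and scored 1–5 (5=81-100%, 1=0-20%).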

[1] = test system: Echinochloa crus-galli (ECHCG); test: Post-emergence Test, Echinochloa crus-galli (ECHCG); design: key to percentage damage caused to the plant, ECHCG (five-point scale): 5=81-100%, 4=61-80%, 3=41-60%, 2=21-40%, 1=0-20% damage; settings: evaluated after 13 days; for Post-emergence Test ECHCG, percentage damage caused to the plant (five-point scale): 250 g/Ha (*)
Method in brief: as §1

Zea mays (ZEAMX) [2] = test: Post-emergence Test, Zea mays (ZEAMX); design: key to percentage damage caused to the plant, ZEAMX (five-point scale): 5=81-100%, 4=61-80%, 3=41-60%, 2=21-40%, 1=0-20% damage; settings: evaluated after 13 days
Method in brief: as §1

[3] = test system: Ipomoea hederacea (IPOHE); test: Post-emergence Test, Ipomoea hederacea (IPOHE); design: key to percentage damage caused to the plant, IPOHE (five-point scale): 5=81-100%, 4=61-80%, 3=41-60%, 2=21-40%, 1=0-20% damage; settings: evaluated after 13 days
Method in brief: as §1

[4] = test system: Amaranthus palmeri (AMAPA); test: Post-emergence Test, Amaranthus palmeri (AMAPA); design: key: 5=81-100%, 4=61-80%, 3=41-60%, 2=21-40%, 1=0-20% damage; settings: evaluated after 13 days
Method in brief: as §1

[5] = test system: Amaranthus retoflexus (AMARE); test: Post-emergence Test, Amaranthus retoflexus (AMARE); design: key to percentage damage caused to the plant, AMARE (five-point scale): 5=81-100%, 4=61-80%, 3=41-60%, 2=21-40%, 1=0-20% damage; settings: evaluated after 13 days
Method in brief: as §1

[6] = test system: Echinochloa crus-galli (ECHCG); test: Pre-emergence Test, Echinochloa crus-galli (ECHCG); settings: 250 g/Ha (*), evaluated after 13 days
Zea mays (ZEAMX) [7] = test: Pre-emergence Test, Zea mays (ZEAMX); settings: 250 g/Ha (*), evaluated after 13 days
[8] = test system: Ipomoea hederacea (IPOHE); test: Pre-emergence Test, Ipomoea hederacea (IPOHE); settings: 250 g/Ha (*), evaluated after 13 days
[9] = test system: Amaranthus palmeri (AMAPA); test: Pre-emergence Test, Amaranthus palmeri (AMAPA); settings: 250 g/Ha (*), evaluated after 13 days
[10] = test system: Amaranthus retoflexus (AMARE); test: Pre-emergence Test, Amaranthus retoflexus (AMARE); settings: 250 g/Ha (*), evaluated after 13 days

SMILES | percentage damage caused to the plant, SETFA (five-point scale) (Setaria faberi (SETFA)) | percentage damage caused to the plant, ZEAMX (five-point scale) (Zea mays (ZEAMX) [2]; 1000 g/ha) | percentage damage caused to the plant, IPOHE (five-point scale) ([3]; 1000 g/ha) | percentage damage caused to the plant, AMAPA (five-point scale) ([4]; 1000 g/ha) | percentage damage caused to the plant, AMARE (five-point scale) ([5]; 1000 g/ha) | percentage damage caused to the plant, ECHCG (five-point scale) ([1]; 250 g/Ha) | percentage damage caused to the plant, ZEAMX (five-point scale) (Zea mays (ZEAMX) [2]; 250 g/Ha) | percentage damage caused to the plant, IPOHE (five-point scale) ([3]; 250 g/Ha) | percentage damage caused to the plant, AMAPA (five-point scale) ([4]; 250 g/Ha) | percentage damage caused to the plant, AMARE (five-point scale) ([5]; 250 g/Ha) | Post-emergence Test SETFA, percentage damage caused to the plant (five-point scale) (Setaria faberi (SETFA)) | Post-emergence Test ECHCG, percentage damage caused to the plant (five-point scale) [1] | Post-emergence Test ZEAMX, percentage damage caused to the plant (five-point scale) (Zea mays (ZEAMX) [2]; 250 g/Ha (*)) | Post-emergence Test ZEAMX, percentage damage caused to the plant (five-point scale) (Zea mays (ZEAMX) [2]; 1000 g/ha) | Post-emergence Test IPOHE, percentage damage caused to the plant (five-point scale) ([3]; 250 g/Ha (*)) | Post-emergence Test IPOHE, percentage damage caused to the plant (five-point scale) ([3]; 1000 g/ha) | Post-emergence Test AMAPA, percentage damage caused to the plant (five-point scale) ([4]; 250 g/Ha (*)) | Post-emergence Test AMAPA, percentage damage caused to the plant (five-point scale) ([4]; 1000 g/ha) | Post-emergence Test AMARE, percentage damage caused to the plant (five-point scale) ([5]; 250 g/Ha (*)) | Post-emergence Test AMARE, percentage damage caused to the plant (five-point scale) ([5]; 1000 g/ha) | further results
CCn1c(Cn2ccc(O)n2)cc(=O)c(C(=O)O)c1-c1ccc(Cl)c(Cl)c1 [Compound 167, 2-(3,4-dichlorophenyl)-1-ethyl-6-[(3-hydroxypyrazol-1-yl)methyl]-4-oxo-pyridine-3-carboxylic acid] | 0 | 0 | 0 | 1 (1=0-20%) | 0 |  |  |  |  |  |  |  |  |  |  |  |  |  |  |  | percentage damage caused to the plant, ECHCG (five-point scale) ([1]; 1000 g/ha): 0
CCn1c(C(C)n2ccc(C(F)(F)F)n2)cc(=O)c(C(=O)O)c1-c1ccc(Cl)c(Cl)c1 (centres unmarked) [Compound 172, 2-(3,4-dichlorophenyl)-1-ethyl-4-oxo-6-[1-[3-(trifluoromethyl)pyrazol-1-yl]ethyl]pyridine-3-carboxylic acid] | 1 (1=0-20%) | 1 (1=0-20%) | 1 (1=0-20%) | 2 (2=21-40%) | 2 (2=21-40%) | 0 | 0 | 0 | 1 (1=0-20%) | 1 (1=0-20%) |  |  |  |  |  |  |  |  |  |  | 
CCn1c(Cn2nc(C(C)(C)C)cc2C(F)(F)F)cc(=O)c(C(=O)O)c1-c1ccc(Cl)c(Cl)c1 [Compound 181, 6-[[3-tert-butyl-5-(trifluoromethyl)pyrazol-1-yl]methyl]-2-(3,4-dichlorophenyl)-1-ethyl-4-oxo-pyridine-3-carboxylic acid] | 0 | 0 | 1 (1=0-20%) | 1 (1=0-20%) | 1 (1=0-20%) | 1 (1=0-20%) | 0 | 0 | 0 | 0 |  |  |  |  |  |  |  |  |  |  | 
CCn1c(Cn2nc(C(F)(F)F)cc2C2CC2)cc(=O)c(C(=O)O)c1-c1ccc(Cl)c(Cl)c1 [Compound 184, 6-[[5-cyclopropyl-3-(trifluoromethyl)pyrazol-1-yl]methyl]-2-(3,4-dichlorophenyl)-1-ethyl-4-oxo-pyridine-3-carboxylic acid] | 4 (4=61-80%) | 3 (3=41-60%) | 4 (4=61-80%) | 3 (3=41-60%) | 3 (3=41-60%) | 3 (3=41-60%) | 1 (1=0-20%) | 1 (1=0-20%) | 1 (1=0-20%) | 1 (1=0-20%) |  |  |  |  |  |  |  |  |  |  | 
CCOCc1ccnn1Cc1cc(=O)c(C(=O)O)c(-c2ccc(Cl)c(Cl)c2)n1CC [Compound 188, 2-(3,4-dichlorophenyl)-6-[[5-(ethoxymethyl)pyrazol-1-yl]methyl]-1-ethyl-4-oxo-pyridine-3-carboxylic acid] | 0 | 0 | 1 (1=0-20%) | 1 (1=0-20%) | 0 |  |  |  |  |  |  |  |  |  |  |  |  |  |  |  | percentage damage caused to the plant, ECHCG (five-point scale) ([1]; 1000 g/ha): 0
CCn1c(Cn2ncc(C(F)(F)F)n2)cc(=O)c(C(=O)O)c1-c1ccc(Cl)c(Cl)c1 [Compound 189, 2-(3,4-dichlorophenyl)-1-ethyl-4-oxo-6-[[4-(trifluoromethyl)triazol-2-yl]methyl]pyridine-3-carboxylic acid] |  |  |  |  |  | 4 (4=61-80%) | 4 (4=61-80%) | 4 (4=61-80%) | 5 (5=81-100%) | 4 (4=61-80%) |  |  |  |  |  |  |  |  |  |  | Pre-emergence Test ECHCG, percentage damage caused to the plant (five-point scale) [6]: 5 (5=81-100%); Pre-emergence Test ZEAMX, percentage damage caused to the plant (five-point scale) (Zea mays (ZEAMX) [7]): 4 (4=61-80%); Pre-emergence Test IPOHE, percentage damage caused to the plant (five-point scale) [8]: 3 (3=41-60%); Pre-emergence Test AMAPA, percentage damage caused to the plant (five-point scale) [9]: 2 (2=21-40%); Pre-emergence Test AMARE, percentage damage caused to the plant (five-point scale) [10]: 2 (2=21-40%)
CCC(=O)Nc1ccn(Cc2cc(=O)c(C(=O)O)c(-c3ccc(Cl)c(Cl)c3)n2CC)n1 [Compound 192, 2-(3,4-dichlorophenyl)-1-ethyl-4-oxo-6-[[3-(propanoylamino)pyrazol-1-yl]methyl]pyridine-3-carboxylic acid] | 0 | 0 | 0 | 1 (1=0-20%) | 1 (1=0-20%) |  |  |  |  |  |  |  |  |  |  |  |  |  |  |  | percentage damage caused to the plant, ECHCG (five-point scale) ([1]; 1000 g/ha): 0
CCn1c(Cn2ccc(-c3ccncc3)n2)cc(=O)c(C(=O)O)c1-c1ccc(Cl)c(Cl)c1 [Compound 195, 2-(3,4-dichlorophenyl)-1-ethyl-4-oxo-6-[[3-(4-pyridyl)pyrazol-1-yl]methyl]pyridine-3-carboxylic acid] |  |  |  |  |  |  |  |  |  |  | 2 (2=21-40%) | 1 (1=0-20%) | 0 | 1 (1=0-20%) | 0 | 1 (1=0-20%) | 0 | 0 | 0 | 1 (1=0-20%) | 
CCn1c(Cn2ccc(-c3ccc(C)cc3)n2)cc(=O)c(C(=O)O)c1-c1ccc(Cl)c(Cl)c1 [Compound 196, 2-(3,4-dichlorophenyl)-1-ethyl-4-oxo-6-[[3-(p-tolyl)pyrazol-1-yl]methyl]pyridine-3-carboxylic acid] |  |  |  |  |  |  |  |  |  |  | 0 | 1 (1=0-20%) | 0 | 1 (1=0-20%) | 0 | 0 | 0 | 0 | 0 | 0 | 
CCn1c(Cn2ccc(-c3ccc(Cl)cc3)n2)cc(=O)c(C(=O)O)c1-c1ccc(Cl)c(Cl)c1 [Compound 199, 6-[[3-(4-chlorophenyl)pyrazol-1-yl]methyl]-2-(3,4-dichlorophenyl)-1-ethyl-4-oxo-pyridine-3-carboxylic acid] |  |  |  |  |  |  |  |  |  |  | 0 | 1 (1=0-20%) | 0 | 0 | 0 | 2 (2=21-40%) | 0 | 0 | 0 | 0 | 
CCn1c(Cn2ccc(-c3ccco3)n2)cc(=O)c(C(=O)O)c1-c1ccc(Cl)c(Cl)c1 [Compound 200] |  |  |  |  |  |  |  |  |  |  | 1 (1=0-20%) | 1 (1=0-20%) | 1 (1=0-20%) | 1 (1=0-20%) | 0 | 1 (1=0-20%) | 0 | 0 | 0 | 0 | 
